Measurements reported in ChEMBL document CHEMBL5465560, “Selectivity Literature for EUbOPEN Chemogenomic Library” (2024).

Assays:
[1] = molecular target: T1, Serine/threonine-protein kinase TAO1 (Homo sapiens) (UniProt Q7L7X3); experiment: Selectivity interaction (KinomeScan (DiscoverX)) EUB0000092b TAOK1; conditions: at 10 µM
T1 sequence (whole entry): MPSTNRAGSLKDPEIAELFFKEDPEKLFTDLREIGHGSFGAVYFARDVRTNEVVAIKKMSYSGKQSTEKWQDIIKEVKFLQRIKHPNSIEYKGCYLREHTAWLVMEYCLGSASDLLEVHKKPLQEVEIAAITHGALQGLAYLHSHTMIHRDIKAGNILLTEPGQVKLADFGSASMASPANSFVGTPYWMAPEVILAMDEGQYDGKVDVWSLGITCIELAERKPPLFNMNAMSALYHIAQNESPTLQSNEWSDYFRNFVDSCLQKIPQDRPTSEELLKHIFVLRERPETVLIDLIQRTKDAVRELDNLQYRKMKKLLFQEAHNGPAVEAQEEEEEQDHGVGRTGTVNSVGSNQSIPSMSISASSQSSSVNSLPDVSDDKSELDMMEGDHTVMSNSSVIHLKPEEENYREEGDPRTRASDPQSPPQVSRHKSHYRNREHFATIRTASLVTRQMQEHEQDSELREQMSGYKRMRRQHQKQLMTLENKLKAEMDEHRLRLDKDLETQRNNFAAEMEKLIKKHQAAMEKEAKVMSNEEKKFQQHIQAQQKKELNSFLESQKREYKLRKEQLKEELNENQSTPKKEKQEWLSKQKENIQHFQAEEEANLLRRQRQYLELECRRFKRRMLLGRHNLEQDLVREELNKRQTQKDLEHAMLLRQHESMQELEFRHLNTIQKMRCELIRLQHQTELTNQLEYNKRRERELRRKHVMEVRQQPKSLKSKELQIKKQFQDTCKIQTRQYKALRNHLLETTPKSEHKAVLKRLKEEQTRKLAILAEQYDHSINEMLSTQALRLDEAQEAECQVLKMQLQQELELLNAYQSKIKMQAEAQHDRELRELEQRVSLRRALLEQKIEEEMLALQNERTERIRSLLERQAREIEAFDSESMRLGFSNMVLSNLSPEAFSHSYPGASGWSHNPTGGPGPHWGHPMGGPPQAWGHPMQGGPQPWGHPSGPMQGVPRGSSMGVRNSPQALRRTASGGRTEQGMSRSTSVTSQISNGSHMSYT

[2] = molecular target: AP2-associated protein kinase 1 (Homo sapiens, UniProt Q2M2I8); experiment: Selectivity interaction (Ambit KINOMEscan and KiNATiv profiling in Jurkat cells) EUB0000090b AAK1; type: cell-based; conditions: at 1 µM
Sequence of AP2-associated protein kinase 1 (Q2M2I8 whole entry, looked up): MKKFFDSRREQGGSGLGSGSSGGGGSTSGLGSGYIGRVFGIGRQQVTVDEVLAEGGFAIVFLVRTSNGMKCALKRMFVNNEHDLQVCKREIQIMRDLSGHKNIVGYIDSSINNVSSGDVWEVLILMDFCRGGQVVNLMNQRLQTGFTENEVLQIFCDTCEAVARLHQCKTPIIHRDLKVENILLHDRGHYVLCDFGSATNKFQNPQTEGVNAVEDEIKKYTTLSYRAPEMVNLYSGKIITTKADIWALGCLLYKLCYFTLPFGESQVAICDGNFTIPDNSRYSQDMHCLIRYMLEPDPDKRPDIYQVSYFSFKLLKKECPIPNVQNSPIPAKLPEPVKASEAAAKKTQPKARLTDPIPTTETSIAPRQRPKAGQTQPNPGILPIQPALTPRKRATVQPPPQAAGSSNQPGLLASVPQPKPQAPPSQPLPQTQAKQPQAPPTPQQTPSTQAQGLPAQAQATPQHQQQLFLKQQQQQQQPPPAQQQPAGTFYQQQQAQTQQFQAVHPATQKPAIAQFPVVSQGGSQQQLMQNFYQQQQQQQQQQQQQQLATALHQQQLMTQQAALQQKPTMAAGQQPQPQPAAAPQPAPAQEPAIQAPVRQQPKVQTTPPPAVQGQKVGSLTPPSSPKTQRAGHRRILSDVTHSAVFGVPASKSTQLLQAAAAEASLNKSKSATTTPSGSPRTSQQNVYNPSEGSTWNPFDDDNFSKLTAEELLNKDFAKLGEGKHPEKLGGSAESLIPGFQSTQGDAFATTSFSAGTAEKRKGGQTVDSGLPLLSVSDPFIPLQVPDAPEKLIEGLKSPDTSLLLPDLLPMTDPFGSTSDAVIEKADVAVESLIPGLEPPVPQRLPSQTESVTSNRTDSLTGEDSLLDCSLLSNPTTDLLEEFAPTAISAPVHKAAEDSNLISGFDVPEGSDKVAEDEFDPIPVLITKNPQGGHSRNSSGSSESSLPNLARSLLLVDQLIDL

[3] = molecular target: Mitogen-activated protein kinase kinase kinase 1 (Homo sapiens, UniProt Q13233); experiment: Selectivity interaction (KinomeScan (DiscoverX)) EUB0000618a MAP3K1; conditions: at 10 µM
Sequence of Mitogen-activated protein kinase kinase kinase 1 (Q13233 whole entry): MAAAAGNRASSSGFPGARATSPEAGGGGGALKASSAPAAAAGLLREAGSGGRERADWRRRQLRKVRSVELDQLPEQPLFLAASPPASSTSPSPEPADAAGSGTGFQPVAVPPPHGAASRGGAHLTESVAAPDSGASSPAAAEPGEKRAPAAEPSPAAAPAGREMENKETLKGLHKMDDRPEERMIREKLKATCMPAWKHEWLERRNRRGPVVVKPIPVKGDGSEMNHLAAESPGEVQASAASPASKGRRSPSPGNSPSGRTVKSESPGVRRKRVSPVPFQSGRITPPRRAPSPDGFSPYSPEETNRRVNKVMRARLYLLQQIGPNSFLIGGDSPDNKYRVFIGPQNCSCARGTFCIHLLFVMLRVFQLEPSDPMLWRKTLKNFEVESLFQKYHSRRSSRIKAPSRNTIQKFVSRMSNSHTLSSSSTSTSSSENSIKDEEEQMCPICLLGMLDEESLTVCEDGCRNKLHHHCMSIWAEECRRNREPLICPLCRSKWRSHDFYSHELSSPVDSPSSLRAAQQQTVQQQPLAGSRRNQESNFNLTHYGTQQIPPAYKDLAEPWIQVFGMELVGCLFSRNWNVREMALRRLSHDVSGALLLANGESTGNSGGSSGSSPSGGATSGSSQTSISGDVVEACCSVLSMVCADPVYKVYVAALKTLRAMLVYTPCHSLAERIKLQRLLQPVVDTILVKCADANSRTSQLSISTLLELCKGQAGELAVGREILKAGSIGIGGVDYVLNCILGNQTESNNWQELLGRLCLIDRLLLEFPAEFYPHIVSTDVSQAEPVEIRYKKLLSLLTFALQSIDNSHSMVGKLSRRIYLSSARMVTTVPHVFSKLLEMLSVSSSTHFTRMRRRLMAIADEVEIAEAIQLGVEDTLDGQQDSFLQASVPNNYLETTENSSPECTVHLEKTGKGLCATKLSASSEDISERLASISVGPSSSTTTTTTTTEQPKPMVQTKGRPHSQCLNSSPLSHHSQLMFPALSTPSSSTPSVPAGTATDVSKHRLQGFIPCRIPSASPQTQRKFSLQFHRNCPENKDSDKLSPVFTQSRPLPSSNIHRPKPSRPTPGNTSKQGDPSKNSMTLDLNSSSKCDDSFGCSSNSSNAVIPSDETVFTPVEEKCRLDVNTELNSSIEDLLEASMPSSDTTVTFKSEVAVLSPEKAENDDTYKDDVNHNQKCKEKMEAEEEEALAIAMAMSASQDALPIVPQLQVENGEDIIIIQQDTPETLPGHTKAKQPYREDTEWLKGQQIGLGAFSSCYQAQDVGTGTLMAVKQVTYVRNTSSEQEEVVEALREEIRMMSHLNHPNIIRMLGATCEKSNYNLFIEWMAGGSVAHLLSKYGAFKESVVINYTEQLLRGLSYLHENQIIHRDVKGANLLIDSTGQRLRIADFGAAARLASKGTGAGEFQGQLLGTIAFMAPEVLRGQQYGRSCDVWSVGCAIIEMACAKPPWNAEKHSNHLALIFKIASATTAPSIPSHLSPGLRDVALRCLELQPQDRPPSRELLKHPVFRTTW

[4] = molecular target: T2, Aurora kinase C (Homo sapiens) (UniProt Q9UQB9); experiment: Selectivity interaction (SelectScreen profiling (Invitrogen)) EUB0000607a AURKC; conditions: at 2 µM
T2 sequence (whole entry): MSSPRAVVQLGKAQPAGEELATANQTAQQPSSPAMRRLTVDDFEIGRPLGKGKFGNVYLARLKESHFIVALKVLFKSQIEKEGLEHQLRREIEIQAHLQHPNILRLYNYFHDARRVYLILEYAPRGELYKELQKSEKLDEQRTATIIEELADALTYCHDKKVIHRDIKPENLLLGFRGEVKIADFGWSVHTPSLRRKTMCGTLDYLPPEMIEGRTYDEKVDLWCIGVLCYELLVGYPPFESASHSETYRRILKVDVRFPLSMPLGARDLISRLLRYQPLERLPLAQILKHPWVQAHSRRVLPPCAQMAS

[5] = molecular target: T3, Myosin-IIIb (Homo sapiens) (UniProt Q8WXR4); experiment: Selectivity interaction (KinomeScan (DiscoverX)) EUB0000607a MYO3B; conditions: at 10 µM
T3 sequence (whole entry): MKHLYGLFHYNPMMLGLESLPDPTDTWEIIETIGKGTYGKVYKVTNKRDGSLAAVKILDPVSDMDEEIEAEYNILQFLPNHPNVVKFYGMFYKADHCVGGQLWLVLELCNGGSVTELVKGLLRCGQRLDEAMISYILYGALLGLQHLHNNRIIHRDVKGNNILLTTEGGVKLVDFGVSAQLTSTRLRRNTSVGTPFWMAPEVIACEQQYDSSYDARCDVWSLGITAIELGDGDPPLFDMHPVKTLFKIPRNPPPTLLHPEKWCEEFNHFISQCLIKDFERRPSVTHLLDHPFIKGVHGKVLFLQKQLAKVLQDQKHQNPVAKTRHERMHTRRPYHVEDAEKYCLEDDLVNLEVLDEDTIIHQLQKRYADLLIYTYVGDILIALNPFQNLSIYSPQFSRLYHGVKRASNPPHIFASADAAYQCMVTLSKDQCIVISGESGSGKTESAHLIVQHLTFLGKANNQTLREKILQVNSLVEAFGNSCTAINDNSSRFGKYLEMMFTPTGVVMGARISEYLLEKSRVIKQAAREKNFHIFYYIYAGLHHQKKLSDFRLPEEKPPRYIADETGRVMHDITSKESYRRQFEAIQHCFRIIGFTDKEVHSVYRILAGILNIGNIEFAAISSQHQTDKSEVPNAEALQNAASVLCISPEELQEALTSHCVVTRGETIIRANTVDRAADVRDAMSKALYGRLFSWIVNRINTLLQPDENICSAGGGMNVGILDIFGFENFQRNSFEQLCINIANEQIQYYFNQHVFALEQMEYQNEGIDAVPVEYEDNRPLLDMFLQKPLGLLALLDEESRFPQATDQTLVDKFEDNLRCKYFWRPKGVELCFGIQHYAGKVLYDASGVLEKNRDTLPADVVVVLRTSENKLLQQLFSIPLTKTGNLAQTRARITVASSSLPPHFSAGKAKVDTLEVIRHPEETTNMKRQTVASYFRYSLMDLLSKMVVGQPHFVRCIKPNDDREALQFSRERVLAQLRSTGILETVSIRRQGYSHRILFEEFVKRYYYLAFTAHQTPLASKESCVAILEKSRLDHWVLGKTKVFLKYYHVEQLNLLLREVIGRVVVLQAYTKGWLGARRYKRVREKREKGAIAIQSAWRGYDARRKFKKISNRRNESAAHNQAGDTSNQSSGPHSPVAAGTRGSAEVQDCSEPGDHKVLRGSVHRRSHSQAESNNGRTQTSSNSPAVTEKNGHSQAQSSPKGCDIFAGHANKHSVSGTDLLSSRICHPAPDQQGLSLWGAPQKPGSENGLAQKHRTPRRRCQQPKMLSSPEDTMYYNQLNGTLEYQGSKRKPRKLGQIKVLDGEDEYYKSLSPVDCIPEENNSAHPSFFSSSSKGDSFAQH

CCC(=O)N1CCN(c2ccc(-n3c(=O)ccc4cnc5ccc(-c6cnc7ccccc7c6)cc5c43)cc2C(F)(F)F)CC1
% of control [1]: 58%

CN(C)C/C=C/C(=O)Nc1ccc(C(=O)N2CCCC(Nc3ncc(Cl)c(-c4c[nH]c5ccccc45)n3)C2)cc1 (stereo not given)
% of control [2]: 89%

O[C@H]1CC[C@H](Nc2ncc3nc(Nc4c(F)cc(F)cc4F)n([C@H]4CCOC4)c3n2)CC1
% of control [3]: 91%

CNC(=O)Nc1ccc(-c2nc(N3CC4CCC(C3)O4)c3cnn(C4CCC5(CC4)OCCO5)c3n2)cc1
% of inhibition [4]: 4%
% of control [5]: 91%
